Experimental data: EP0285356A2, “Dopamine-beta-hydroxylase inhibitors” (SMITHKLINE BECKMAN CORPORATION, priority 1987, dated 1988)
Read-outs that look alike come from different tables or passages of the source.

Experiments:
[1] = target: T1, dopamine-β-hydroxylase (DBH) (Homo sapiens, UniProt P09172); assay: in vitro DBH inhibition, conversion of tyramine to octopamine in the presence of DBH; type: biochemical
T1 sequence (P09172 1-617): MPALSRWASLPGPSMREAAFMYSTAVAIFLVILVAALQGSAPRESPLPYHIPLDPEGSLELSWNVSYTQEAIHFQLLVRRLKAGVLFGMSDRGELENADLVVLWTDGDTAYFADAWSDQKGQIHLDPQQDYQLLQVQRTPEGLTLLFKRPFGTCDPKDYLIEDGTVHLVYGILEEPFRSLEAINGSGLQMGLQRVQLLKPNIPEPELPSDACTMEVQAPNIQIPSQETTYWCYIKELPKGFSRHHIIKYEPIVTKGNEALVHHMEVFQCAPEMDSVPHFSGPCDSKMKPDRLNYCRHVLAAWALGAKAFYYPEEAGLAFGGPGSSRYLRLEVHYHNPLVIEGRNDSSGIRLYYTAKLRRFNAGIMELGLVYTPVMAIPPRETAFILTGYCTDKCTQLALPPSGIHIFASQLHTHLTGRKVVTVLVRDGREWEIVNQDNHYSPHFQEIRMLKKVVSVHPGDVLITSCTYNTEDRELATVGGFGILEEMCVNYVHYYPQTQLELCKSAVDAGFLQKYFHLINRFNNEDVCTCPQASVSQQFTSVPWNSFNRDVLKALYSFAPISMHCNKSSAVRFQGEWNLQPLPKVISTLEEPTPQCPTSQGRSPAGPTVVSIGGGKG
Method: Listed in Table I are the compounds of the invention that were tested for in vitro DBH inhibition by a standard procedure for assaying conversion of tyramine to octopamine in the presence of DBH. J. J. Pisano, et al., Biochem. Biophys, Acta, 43, 566-568 (1960). Octopamine was assayed following sodium periodate oxidation to p-hydroxybenzaldehyde by measuring spectrophotometric absorbance at 330 nm. In Table I, inhibition is given in micromolar concentration of compound at which DBH activity was halved (IC₅₀).

[2] = tested on: spontaneously hypertensive rats; assay: mean arterial blood pressure in spontaneously hypertensive rats; type: in vivo; conditions: 50 mg/kg intraperitoneally, compared to vehicle-treated controls, approximate
Method: Further, spontaneously hypertensive rats were treated with a suspension or solution of 1-(2-furanylmethyl)imidazole-2-thiol at a dose of 50 mg/kg intraperitoneally, and mean arterial blood pressure was monitored for 260 minutes using indwelling cannulae in the tail arteries. […] Maximal blood pressure reduction was approximately 50 to 55 mm Hg.

[3] = concentration of compound at which DBH activity was halved, tyramine to octopamine, absorbance at 330 nm, read-out: DBH IC50

| IC50 [1, 3] [µM] | SMILES | time after treatment to significant blood pressure reductions [2] [min] | IC50 [1] [µM] |
| --- | --- | --- | --- |
| 56 | Sc1nccn1Cc1ccco1 [1-(2-furanylmethyl)imidazole-2-thiol] | ≤ 30 | – |
| – | CCCCc1ccc(C(=O)O)nc1 [fusaric acid, reference compound] | – | 0.8 |
| 36 | Sc1nccn1Cc1ccoc1 [1-(3-furanylmethyl)imidazole-2-thiol] | – | – |
